The record followed here is patent US20140248227A1, “DEODORIZING COMPOSITIONS” (Henkel AG & Co. KGaA, priority 2011, published 2014).

A short description of the test: odor evaluation of filter papers treated with active agent and artificial perspiration mixture by six trained testers. Conditions: 0.5-wt % solution in ethanol on filter paper; 24 hours at room temperature; scale 0 (no difference from ethanol control) to 4 (very much better odor reduction). An excerpt: An artificial perspiration mixture was produced by mixing different short-chain fatty acids at specific quantitative ratios (C6, C8, C9, C10, isovaleric acid). respective 0.5-wt % solutions in ethanol were produced of each of the active agents and active-agent combinations to be tested, applied in a standardized quantity onto filter paper, and dried for one hour at room temperature. The artificial perspiration mixture was then applied in a standardized quantity, and the filters were stored for 24 hours at room temperature in a closed container. An odor evaluation of the samples was carried out by six trained testers using a scale from 0 (no difference from ethanol control) to 4 (very much better odor reduction as compared with ethanol control).
Take `CC(C)[C@@H]1CC[C@@H](C)C[C@H]1O` (racemic) [DL-Menthol, DL-menthol]: the “reduction in perspiration odor as compared with the ethanol control” value (shortened to “reduction in perspiration odor”) was 1.67 units.
`CC12CCC(CC1)C(C)(C)O2` [eucalyptol, 1,3,3-trimethyl-2-oxabicyclo[2.2.2]octane]: the “reduction in perspiration odor” value was found to be 0.92 units.
On to `C/C=C\c1ccc(OC)cc1` [anethole], for which the “reduction in perspiration odor” value stood at 2.42 units.
